# Assay results taken from US9775902B2, “Compounds and methods for treatment of stroke” (FIBROGEN, INC, priority 2006, dated 2017).
# How the values were obtained:
# Assay type in all cases: in vivo
# [1] = system: db/db mice, permanent occlusion of the MCA; test: pMCAO in db/db mice: infarct volume; details: 20 mg/kg i.v. immediately after MCA occlusion, 24 hours
# Method: The effect of compounds of the present invention on infarct volume and edema associated with stroke was examined in an animal model of ischemic stroke. In these studies, mice were subjected to permanent occlusion of the middle cerebral artery. Mice were anesthetized intraperitoneally with avertin (0.5 mg/g). Mice were then immobilized in a rodent stereotaxic frame (Kopf Instruments, Tujunga Calif.) and maintained with avertin as needed. The surgical area of the head was swabbed with 70% ethanol and a lateral incision was made between the right orbit and the right ear. […] The distal course of the middle cerebral artery (MCA) was visible through the translucent skull. A small burr-hole craniotomy was performed with a micro-drill (Fine Science Tools, Foster City Calif.). The meninges/dura was removed and the MCA was coagulated by bipolar diathermy. The muscle and soft tissue were replaced and the incision closed with vet-bond adhesive (3M, St. Paul Minn.). These studies were performed in two different mouse models of pMCAO as described below.
# To evaluate the effect of compounds of the present invention on infarct volume in an animal model of diabetes, db/db mice were subjected to ischemic stroke. Eight week-old male db/db mice were subjected to permanent occlusion of the MCA as described above. […] Changes in infarct volumes were determined as described above.
# [2] = system: Wistar rats, transient MCA occlusion; test: Grip strength test in rat tMCAO; details: 60 mg/kg p.o. at 1.5 and 24 hours after reperfusion then 30 mg/kg every other day, days 7, 14, 21, and 28, vs non-treated control, FIG. 5
# Text: (§1) Rats subjected to cerebral ischemia following transient MCA occlusion have deficits in sensorimotor and neuromuscular function which can be assessed using various behavioral tests. (See, e.g., Aronowski et al. J Cereb Blood Flow Metab (1996) 16:705-713; and Colbourne et al. J Cereb Blood Flow Metab (2000) 20:1702-1708.) The effect of compounds of the present invention on various functional impairments associated with stroke was examined using an animal model of ischemic stroke. In this series of experiments, male Wistar rats (300 g) underwent behavioral testing after transient MCA occlusion. One day prior to MCAO surgery, the rats were trained to the grip strength meter and subjected to tactile adhesion testing. Following their training, rats were subjected to transient occlusion of the MCA in the same manner described in Example 10 above. Compound F (60 mg/kg, p.o.) was administered by oral gavage at 1.5 hours and 24 hours after reperfusion and then every other day (with a dose of 30 mk/kg, p.o.) for 28 days. […]
# Grip strength was used to assess neuromuscular function. Rat grip strength was determined using a standard rodent grip strength meter (Columbus Instruments, Columbus Ohio). […] Grip strength was assessed with a gentle consistent pull in the caudal direction. The digital reading on the meter was recorded and the mean of three trials reported. […]
# [3] = system: Wistar rats, transient MCA occlusion; test: Tactile adhesion test in rat tMCAO; details: 60 mg/kg p.o. at 1.5 and 24 hours after reperfusion then 30 mg/kg every other day, day 7, vs non-treated control, FIG. 4
# Text: as §1
# A tactile adhesion test was used to measure sensorimotor deficits and function. […] The latency (i.e. time required for the animal to remove each stimulus from the forelimbs) was recorded for ipsilateral (right) and contralateral (left) forelimbs separately. Three trials separated by 5 minutes were carried out for each rat and mean latency values in seconds (sec) were recorded.
compound,measurement,setting,value
"COc1ccc(Oc2ccc3c(O)c(C(=O)NCC(=O)O)ncc3c2)cc1 [Compound F, {[4-Hydroxy-7-(4-methoxy-phenoxy)-isoquinoline-3-carbonyl]-amino}-acetic acid]",reduction in infarct volume,[1],52%
same,grip strength,[2],significantly improved
same,latency in the tactile adhesion test,[3],significantly improved
